Drawing on patent US20230150997A1, “EIF4E INHIBITORS AND USES THEREOF” (PIC Therapeutics, Inc., priority 2021, published 2023), this text covers IC50 for 15 compounds.

Molecules are shown by their SMILES.

T1 sequence (P06730 28-217): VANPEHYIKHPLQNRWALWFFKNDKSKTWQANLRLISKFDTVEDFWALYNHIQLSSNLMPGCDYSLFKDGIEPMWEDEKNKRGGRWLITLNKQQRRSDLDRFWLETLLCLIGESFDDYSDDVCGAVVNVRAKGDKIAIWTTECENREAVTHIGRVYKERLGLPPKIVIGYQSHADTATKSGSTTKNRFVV

The test concerns the target T1, Human eIF4E (Homo sapiens, UniProt P06730).
T1 construct: Human eIF4E (aa 28-217) with a C-terminal His-tag; made in house
The test can be described thus: Human eIF4E/4G2 binding assay (TR-FRET). As to conditions: purified human eIF4E (aa 28-217), biotin labeled 4G2 peptide, 4 hours preincubation at room temperature. As for the experimental part:
Example 3. Compound Testing in Human eIF4E/4G2 Binding Assay
Human eIF4E (aa 28-217) with a C-terminal His-tag was expressed in E. coli in inclusion bodies. The protein was solubilized with 8 M urea and purified under denaturing conditions using nickel-charged HisTrap HP columns (GE Healthcare). The purified protein was then refolded by diluting in 20 mM Hepes pH 7.0, 0.5 M NaCl, 1 mM DTT, 1 mM EDTA, 0.5 M arginine plus 6 M urea, and then dialyzing overnight into the same buffer without the urea. The protein was further dialyzed into 20 mM Hepes, pH 6.5, 50 mM NaCl, 1 mM EDTA, 1 mM DTT, and concentrated using Hitrap SP sepharose FF columns (GE Healthcare). The concentrated protein was dialyzed into 20 mM Hepes, pH 7.0, 0.5 M NaCl, 5 mM DTT and 10% glycerol, and stored at -80° C. until use.
Test compounds (3.43 mM stock in DMSO) were diluted 2-fold in series in DMSO (10 concentration points). Compound solutions (1.2 µl/well) were added into black 384-well polypropylene microplates (Matrix, Thermal Scientific). Twenty-two microliters per well of Assay Buffer (50 mM NaPi, pH 6.5, 50 mM KCl, 1 mM DTT and 0.5 mg/ml gamma globulin) and eight microliters per well of 82.5 nM purified eIF4E in Assay Buffer were added. The samples were incubated at room temperature (20-23° C.) for 4 hours. Biotin labeled 4G2 peptide (Ac-Lys-Gln-Tyr-Asp-Arg-Glu-Phe-Leu-Leu-Asp-Phe-Gln-Phe-Met-Pro-Lys(Aha-Bio)-NH2, 1.75 µM stock in DMSO) was diluted to 0.14 µM in Assay Buffer (without DTT) and 5 µl/well was added. The samples were incubated at room temperature for 20 min. Five microliters per well of 6.4 nM Eu-streptavidin (Eu-SA, Perkin Elmer) and 80 nM Allophycocyanin (APC)-anti His antibody (Columbia Biosciences) in Assay Buffer (without DTT) were then added and the samples were incubated at room temperature for 20 min.
Assay signals were monitored by reading excitation at 340 nm and emission fluorescence at 615 nm and 665 nm on an Envision reader (Perkin Elmer). Normalized TR-FRET (time-resolved fluorescence resonance energy transfer) assay signal (Rn) was calculated by the formula: Rn = [(A-Ba-C x D)/(D-Bd)] x (Dc- Bd) • Where A is the fluorescence intensity of the sample at 665 nm, • D is the fluorescence intensity of the sample at 615 nm, • Ba and Bd are plate backgrounds at 665 nm and 615 nm, respectively, • Dc is the fluorescence intensity of 0.78 nM Eu-SA in the assay buffer at 615 nm • The cross-talk factor (C) is determined by the following formula: • C = (Ac- Ba)/(Dc-Bd) • Where Ac is the fluorescence intensity of 0.78 nM Eu-SA in the assay buffer at 665 nm.
IC50 values were calculated using xLFit program (IDBS). Table 2 below lists […] of some compounds, wherein A represents IC50 ≤ 0.5 µM; B represents 0.5 uM < IC50 ≤ 1 µM; and C represents IC50 > 1 µM.
In the case of `CCOc1cccc(-c2nc(Nc3cc(C(=O)O)c(-c4cccs4)cn3)sc2CC(C)C)c1` [I-130, 2-((4-(3-ethoxyphenyl)-5-isobutylthiazol-2-yl)amino)-5-(thiophen-2-yl)isonicotinic acid], the IC50 (commonly the concentration that gives 50% inhibition) was in the range of 500 to 1000 nM. Consider `CC(C)COc1cc(-c2nc(Nc3ncc(-c4cccs4)cc3C(=O)O)sc2CC(C)(C)C)ccc1F` [I-96], for which the IC50 is no more than 500 nM.

`COc1cccc(-c2nc(Nc3ncc(-c4cccs4)cc3C(=O)O)sc2CC(C)C)c1` [I-78] displayed an IC50 of no more than 500 nM. `COCCOc1ccc(-c2nc(Nc3ncc(-c4cccs4)cc3C(=O)O)sc2CCOC)cc1F` [I-50]: the half-maximal inhibitory concentration (IC50) lay in the range of 500 to 1000 nM. With `COCCOc1cc(-c2nc(Nc3ncc(-c4cccs4)cc3C(=O)O)sc2CCC(C)C)ccc1F` [I-84], the concentration for half-maximal inhibition (IC50) was no more than 500 nM. Regarding `COCCOc1cc(C)cc(-c2nc(Nc3ncc(-c4cccs4)cc3C(=O)O)sc2CC(C)C)c1` [I-118], the 50% inhibitory concentration (IC50) is no more than 500 nM. As to `COCCOc1ccc(-c2nc(Nc3ncc(-c4ccc(C)s4)cc3C(=O)O)sc2CC(C)C)cc1Cl` [I-43], the half-inhibitory concentration (IC50) was no more than 500 nM. The compound `COc1ccc(-c2nc(Nc3ncc(-c4cccs4)nc3C(=O)O)sc2CCC(C)C)cc1Cl` [I-61] showed a 50% inhibitory concentration (IC50) of no more than 500 nM.

For `Cc1csc(-c2cnc(Nc3nc(-c4ccc(OC(F)F)cc4)c(C4CCCC4)s3)c(C(=O)O)c2)c1` [1-39], the IC50 is no more than 500 nM. On to `COc1ccc(-c2nc(Nc3ncc(-c4cccs4)cc3C(=O)O)sc2C2CC2)cc1F` [I-28], for which the IC50 fell in the range of 500 to 1000 nM.

As to `COCCOc1ccc(-c2nc(Nc3ccc(-c4cccs4)cc3C(=O)O)sc2CC(C)C)cc1F` [I-64], the IC50 is no more than 500 nM. For `CCOc1cccc(-c2nc(Nc3ncc(-c4ccco4)cc3C(=O)O)sc2CC(C)C)c1` [I-115], the IC50 was no more than 500 nM. Compound `CC(C)COc1cc(-c2nc(Nc3ncc(-c4cccs4)cc3C(=O)O)sc2CC(C)(C)C)ccc1Cl` [I-97] registered an IC50 of no more than 500 nM. For the compound `COCCOc1ccc(-c2nc(Nc3cc(-c4ccccc4)sc3C(=O)O)sc2CC(C)C)cc1` [I-23], the IC50 lay in the range of 500 to 1000 nM. In turn, `COCCOCCOc1ccc(-c2nc(Nc3ncc(-c4cccs4)cc3C(=O)O)sc2CC(C)C)cc1F` [I-68] registered an IC50 of 500 to 1000 nM.
